Source: US12370193B2, “Method of inhibiting TREM-1” (UNIVERSITY OF FLORIDA RESEARCH FOUNDATION, INCORPORATED, priority 2019, dated 2025)

Test system: RAW264.7 cells
Test: LXR target, cytokine and SENP gene expression in LPS-stimulated RAW264.7 cells
Type: cell-based, mouse
Protocol: FIGS. 3A-3D: Comparison with LXR agonist. […] FIGS. 3C and 3D show log 2 fold change of SENP3 expression in RAW264.7 cells mRNAseq and q-PCR.
Quantitative RT-PCR: Total RNA was extracted from EL4 or RAW264.7 cells using RNeasy Plus Micro Kit (Qiagen) and the RNA was reverse transcribed using the ABI reverse transcription kit (Applied Biosystems/Thermo Fisher Scientific, Waltham MA). Quantitative PCR was performed with a 7900HT Fast Real Time PCR System (Applied Biosystems) using SYBR green (Roche).
mRNA sequencing analysis: RAW264.7 cells RNA extraction protocol for RNA seq was derived from Qiagen Kit-74106. Total RNA was quantified using the Qubit 2.0 Fluorometer (Invitrogen, Carlsbad, CA) and run on the Agilent 2100 Bioanalyzer (Agilent Technologies, Santa Clara, CA) for quality assessment. RNA samples of good quality with RNA Integrity Number (RIN)>8.0 were further processed. A RNase-free working environment was maintained and RNase-free tips, Eppendorf tubes and plates were utilized for the subsequent steps. Messenger RNA was selectively isolated from total RNA (300 ng input) using poly-T oligos attached to magnetic beads and converted to sequence-ready libraries using the TruSeq stranded mRNA sample prep protocol (Cat. #: RS-122-2101, Illumina, San Diego, CA). The final libraries were validated on the bioanalyzer DNA chips and qPCR quantified using primers that recognize the illumina adaptors. The libraries were then pooled at equimolar ratios, quantified using qPCR and loaded onto the NextSeq 500 flow cell at 1.8 pM final concentration. They were sequenced using the high-output, paired-end, 75-bp chemistry. Demultiplexed and quality filtered raw reads (fastq) generated from the NextSeq 500 were trimmed (adaptor sequences) using Flexbar 2.4 and aligned to the mouse reference database (mm9) using TopHat version 2.0.9 (Trapnell et al., 2009). HTseq-count version 0.6.1 was used to generate gene counts and differential gene expression analysis was performed using Deseq2 (Anders and Huber, 2010).

Cc1cc(CN2CCN(Cc3ccncc3)CC2)ccc1-c1ccc(C(O)(C(F)(F)F)C(F)(F)F)cc1 [SR1903, 1,1,1,3,3,3-hexafluoro-2-(2′-methyl-4′-((4-(pyridin-4-ylmethyl)piperazin-1-yl)methyl)-[1,1′-biphenyl]-4-yl)propan-2-ol]
expression of ACACA and FASN (LPS-stimulated RAW264.7 cells): increased
expression of LXR target genes including ABCG1 and SCD (LPS-stimulated RAW264.7 cells, RNA sequencing): increased the expression
expression of IL6 and IL33 (LPS-stimulated RAW264.7 cells, RNA sequencing, confirmed by qPCR): robustly dampened
expression of SENP2 and SENP6 (LPS-stimulated RAW cells, RNA sequencing): repressed
expression of SENP3 (LPS-stimulated RAW cells, RNA sequencing, qPCR): increased the expression
